One data set deals with rats. Description: Porsolt test (Forced Swim Test), systemic dosing. The class given is in vivo, rat. Particulars: for effect on floating times in the Porsolt test: Sprague Dawley rats, 20-60 min post dosing. As to the method: For the evaluation of the antidepressant actions of GLYX-13, the effect of GLYX-13 in the Porsolt test of depression was examined in rats. Porsolt testing is the most commonly used test for assessment of depression in animal model, Porsolt testing, also known as Forced Swim Test, is based on a behavioral trait that is sensitive to changes in affective state. During this test, the animal is placed in a tank (18 cm diameter×45 cm height) filled to 30 cm with 22-23° C. water. After placing the animal in the tank, the amount of time for which the rat is immobile when it stops struggling is measured. Porsolt test is based on the fact that antidepressants increase the latency to immobility and decrease the time for which the rat is immobile. […] The interpretation of the Porsolt test is that the antidepressants reinstate active coping mechanisms and decrease the passive immobility evoked by stress.
In order to evaluate the effectiveness of GLYX-13 as antidepressant, three month old FBNF1 rats were separated into two groups of 9 animals. The first group of rats was intravenously injected with 10 mg/kg GLYX-13 and the second group of animals was intravenously injected with PBS vehicle (1 ml/kg) in a blind manner via chronic subdural femoral vein access ports. Both groups of animals were injected 10 to 15 minutes before the start of testing.
For Porsolt testing, animals were given a 15 minute pre-test habituation in the tank to induce learned helplessness on day one. Following this, on the subsequent day, the animals were injected with GLYX-13 or vehicle 10-15 minutes before being placed into the tank for a 5 minute test session. After placing the animals in the tank, the amount of time for which each animal is immobile when it stops struggling (Mean Immobility Time) was measured. Decrease in Mean Immobility Time is a measure of the effectiveness of the antidepressant.
A second experiment was performed in the same manner as Example 1, except that 2-3 month Sprague-Dawley rats were used, and treated with either intravenous (1, 3, 10, 32 mg/kg), subcutaneous (1, 3, 10, 32, 56, 100 mg/kg) injections of GLYX-13 or saline vehicle (1 mg/ml) 15 (i,v.) or 20 (s.c.) min before the start of the final 5 min test session. Ketamine (10 mg/kg i.p.) was given 60 min befbre the start of testing (Garcia et al., (2008) Prog Neuropsychopharmacol Biol Psychiatry, 32, 140-144).
To determine whether the antidepressant effect of GLYX-13 was specific to the sequence of the GLXY-13 peptide, mean time (sec) spent floating in the Porsolt test was determined in groups of 12 three-month old Sprague Dawley rats administered with GLYX-13 (TPPT-NH2 (SEQ ID NO: 13); 3 mg/kg , i.v. tail vein), a scrambled peptide (PTPT-NH3(SEQ ID NO: 19); 3 mg/kg i.v. tail vein), or 0.9% saline vehicle (1 ml/kg, i.v. tail vein). Administration occurred 60 min before the 5 min testing session. Animals received a 15 min training swim session one day before dosing.
To evaluate whether the anti-depressive and anxiolytic effects of GLYX-13 would persist beyond a few hours, rats were tested in the Porsolt test and the Open Field test, described above. Groups of 10-11 three-month old Sprague-Dawley rats were pretreated with GLYX-13 (3 mg/kg i.v.), ketamine (10 mg/kg i.v.) or saline vehicle injection (1 mg/ml i.v. tail vein) 96 hrs before the start of testing. Animals received a single 15 min. training swim session one day before dosing. Animals were tested 96 hrs post dosing in the Porsolt test without any testing during the intervening period. Open field testing was conducted without pre-habituation 1 day after Porsolt testing (i.e. 120 hrs post dosing). Mean(±SEM) time (sec.) spent floating in the Porsolt test, time spent in the center compartment (sec.), and line crosses in the open field test were determined.
The Porsolt test adapted for use in rats was performed as above. […]

A short description of data set [1]: CSF concentration of GLYX-13 after IV administration (LC-MS/MS). Particulars: male, Sprague Dawley, rat, cerebrospinal fluid (CSF), rats, read-out: Cmax within the CSF compartment. The class given is in vivo. As to the method: Male Sprague Dawley rats (250-300 g) received intravenous injections of GLYX-13 (3-10 mg/kg), briefly anesthetized with isoflurane, and cerebrospinal fluid (CSF) samples drawn and stored at −70° C. until analysis.
CSF samples were precipitated with internal standard Pro-Thr-Pro-Ser-NH2 (SEQ ID NO: 20) in 400 μl of acetonitrile. Supernatant extract was separated by HPLC (LC-20AD, Shimadzu, Japan) using a Synergi 4μ Hydro-RP 8A column (Phenomenex, USA) with mobile phase of 100 mM ammonium formate with 0.1% formic acid for 0 1 minute followed by acetonitrile with 0.1% formic acid and samples were analyzed by LC-MS/MS (API4000, Applied Biosystems, USA) in ESI positive ion mode and the GLYX-13 (199.1 and 216.1) and IS (202.3) daughter ions quantified by multiple reaction monitoring. The lower limit of quantitation for the assay was 26.3 nM GLYX-13.

Data set [2] deals with rat hippocampal organotypic cultures. Description: LTP and LTD in rat hippocampal organotypic cultures. The class given is cell-based. Particulars: in vitro.

Read-outs that look alike come from different tables or passages of the source. Where a SMILES comes first, the peptide text is derived from it.

For orientation: Cmax means the highest concentration seen after dosing. Consider `C[C@@H](O)[C@H](N)C(=O)N1CCC[C@H]1C(=O)N1CCC[C@H]1C(=O)N[C@H](C(N)=O)[C@@H](C)O` [GLYX-13, L-threonyl-L-prolyl-L-prolyl-L-threonine amide] (H-TPPT-NH2), for which, in the data set with rats (10 mg/kg SC), the “activity in the Porsolt test” value is listed as “active”. Also, the “effect on floating times in the Porsolt test” value with rats (3-10 mg/kg IV) and in the data set with rats (10-30 mg/kg SC) was “significantly (P<0.05) reduced floating times” in each case. Also, the onset of action result with rats (single dose, rats) is reported as “within minutes”. Besides, the results for the Cmax in data set [1] (3 mg/kg IV) and in data set [1] (10 mg/kg IV) were 60 nM and 200 nM, respectively. Besides, the “long-term depression (LTD)” value in data set [2] was “reducing”. The “long-term potentiation (LTP)” value in data set [2] is reported as “markedly elevate”.

These data come from patent US9796755B2, “Methods of treating depression and other related diseases” (Northwestern University, priority 2009, dated 2017).
